Laboratory results from patent publication US20230115176A1 (Ra Pharmaceuticals, Inc., priority 2019, published 2023).
Values after ≈ are worked out from the molar mass of the structure shown.

What was measured:
[1] = Permeability assay, unidirectional transport, Papp (Example 30, Table 34); assay type: in vitro ADME, canine; settings: dog, pH 7.4; MDCK-WT cell monolayers, A-to-B, 3 μM test compound, 37° C., duplicate determinations
Description: Permeability assays were carried out to provide a preliminary indication of suitability for oral dosing and compound permeability across the blood brain barrier. Unidirectional and bidirectional compound transport across Madin Darby canine kidney (MDCK) cell monolayers was assessed. For unidirectional transport assessment, transport across MDCK wild type (MDCK-WT) cell monolayers was assessed. For bidirectional transport, transport across MDCK-MDR1 cell monolayers was assessed. MDCK-MDR1 cells express the MDR1 gene encoding the P-glycoprotein (P-gp) efflux protein.
MDCK-WT and MDCK-MDR1 cells were plated onto permeable polycarbonate supports in 12-well Costar transwell plates and allowed to grow and differentiate for 3 days. After 3 days in culture, the culture medium (DMEM supplemented with 10% FBS) was removed from both sides of the transwell inserts and cells were rinsed with warm HBSS. After the rinse step, the chambers were filled with warm transport buffer (HBSS containing 10 mM HEPES, 0.25% BSA, pH 7.4) and the plates were pre-incubated at 37° C. for 30 minutes prior to TEER (Trans Epithelial Electric Resistance) measurements.
The buffer in the donor chamber (apical side for A-to-B assay, basolateral side for B-to-A assay) was removed and replaced with the working solution (3 μM test compound and 10 μM for control compounds in transport buffer). The plates were then placed at 37° C. under light agitation. At designated time points (30, 60 and 90 min), an aliquot of transport buffer from the receiver chamber was removed and replenished with fresh transport buffer. Samples were quenched with ice-cold ACN containing internal standard and then centrifuged to pellet protein. Resulting supernatants were further diluted with 50/50 ACN/H2O (Atenolol diluted in just water) and submitted for LC-MS/MS analysis. Apparent permeability (Pap) values were calculated from duplicate determinations. Atenolol and propranolol were tested as low and […] permeability references.
Papp values indicate extent of compound permeation across monolayers.

Human C5 [2] = target: T1, Human C5 (Homo sapiens, UniProt P01031); assay: Red blood cell (RBC) hemolysis assay, luminescent (Example 28, Table 32); assay type: cell-based; settings: sheep EA cells, 1.5% C5-depleted human serum, 0.5 nM human C5, 1 hour at 37° C., luminescence (Table 32)
T1 construct: purchased Complement Technology
T1 sequence (P01031 19-1676): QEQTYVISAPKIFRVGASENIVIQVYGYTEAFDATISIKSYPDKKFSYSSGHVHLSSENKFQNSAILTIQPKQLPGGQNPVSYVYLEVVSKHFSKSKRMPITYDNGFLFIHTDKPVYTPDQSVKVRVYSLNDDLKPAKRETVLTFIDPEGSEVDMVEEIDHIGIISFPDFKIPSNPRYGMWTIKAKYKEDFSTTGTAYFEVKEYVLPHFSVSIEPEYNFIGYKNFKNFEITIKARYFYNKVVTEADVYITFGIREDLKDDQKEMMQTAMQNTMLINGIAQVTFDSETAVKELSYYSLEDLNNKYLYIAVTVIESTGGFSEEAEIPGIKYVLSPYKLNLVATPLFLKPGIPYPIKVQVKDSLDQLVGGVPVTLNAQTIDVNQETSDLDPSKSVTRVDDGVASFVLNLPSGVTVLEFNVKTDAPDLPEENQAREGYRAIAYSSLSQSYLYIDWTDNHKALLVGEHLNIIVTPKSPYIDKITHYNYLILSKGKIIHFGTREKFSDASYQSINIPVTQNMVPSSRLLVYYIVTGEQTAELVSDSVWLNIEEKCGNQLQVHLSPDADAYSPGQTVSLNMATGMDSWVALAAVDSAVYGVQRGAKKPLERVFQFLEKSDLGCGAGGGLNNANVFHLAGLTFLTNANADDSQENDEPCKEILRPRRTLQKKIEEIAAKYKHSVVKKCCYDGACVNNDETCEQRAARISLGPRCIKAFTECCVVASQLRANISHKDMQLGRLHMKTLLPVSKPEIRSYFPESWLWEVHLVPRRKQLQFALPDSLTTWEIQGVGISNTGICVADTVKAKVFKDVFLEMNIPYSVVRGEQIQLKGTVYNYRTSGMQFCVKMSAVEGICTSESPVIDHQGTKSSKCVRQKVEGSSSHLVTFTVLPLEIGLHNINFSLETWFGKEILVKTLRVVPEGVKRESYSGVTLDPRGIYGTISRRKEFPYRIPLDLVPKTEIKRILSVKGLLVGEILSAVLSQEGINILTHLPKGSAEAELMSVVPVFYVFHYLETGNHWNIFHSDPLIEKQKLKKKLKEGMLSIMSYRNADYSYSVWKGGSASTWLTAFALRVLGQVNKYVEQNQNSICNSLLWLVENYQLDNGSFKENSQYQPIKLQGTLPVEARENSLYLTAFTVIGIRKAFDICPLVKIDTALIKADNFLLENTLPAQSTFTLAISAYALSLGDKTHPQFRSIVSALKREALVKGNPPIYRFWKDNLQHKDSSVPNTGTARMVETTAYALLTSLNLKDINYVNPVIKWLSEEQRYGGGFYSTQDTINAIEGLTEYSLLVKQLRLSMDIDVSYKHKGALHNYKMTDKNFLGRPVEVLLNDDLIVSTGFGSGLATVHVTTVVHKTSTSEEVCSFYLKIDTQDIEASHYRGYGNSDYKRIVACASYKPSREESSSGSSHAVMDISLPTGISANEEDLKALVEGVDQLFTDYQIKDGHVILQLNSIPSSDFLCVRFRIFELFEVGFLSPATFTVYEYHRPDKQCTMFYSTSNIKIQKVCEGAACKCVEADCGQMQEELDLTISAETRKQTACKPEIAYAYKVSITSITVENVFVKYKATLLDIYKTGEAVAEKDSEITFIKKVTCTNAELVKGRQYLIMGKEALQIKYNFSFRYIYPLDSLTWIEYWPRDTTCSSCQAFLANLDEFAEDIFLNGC

[3] = Kinetic solubility in PBS pH 7.4, HPLC-UV (Example 21, Table 27); assay type: physicochemical; settings: phosphate buffered saline, aqueous buffer, kinetic from dmso stock, 0.5 M PBS, shaken minimum 24 h at approximately 25° C., HPLC-UV 270 nm
Outline: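 10 mM DMSO stock diluted into 0.05 M PBS pH 7.4 (5% DMSO final), in triplicate, shaken ≥24 h at ~25 °C, then filtered by centrifugation. Supernatant concentration by HPLC-UV at 270 nm against external DMSO standards (15.6–500.0 μM).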

[4] = target: T2, human C5 complement protein (Homo sapiens, UniProt P01031); assay: Surface plasmon resonance (SPR), immobilized human C5, 37° C. (Example 27, Table 31); assay type: binding; settings: lowest value obtained where a range of concentrations was analyzed (Table 31)
T2 sequence (P01031 19-1676): as above

[5] = target: T2, human C5 complement protein; assay: Surface plasmon resonance (SPR), immobilized human C5, 37° C. (Example 18, Table 24); assay type: binding; settings: lowest value obtained where a range of concentrations was analyzed
Human C5 [6] = target: T1, Human C5; assay: Red blood cell (RBC) hemolysis assay, luminescent (Example 13, Table 22); assay type: cell-based; settings: sheep EA cells, […] C5-depleted human serum, 0.5 nM human C5, 1 hour 37° C., luminescence
Source text: Compound CU0136 is a racemic mixture of Compound CU0186 and CU0187. Numbers in parenthesis following compound numbers indicate alternate enantiomers (as distinguished by retention time during chromatographical separation).

With `CCCCCOc1cc(N2CC[C@H](C)N(Cc3ccnc4c3c(Cl)cn4CC(=O)N3CC(N4CCOCC4)C3)C2=O)ccc1OC` [SC0117] the Papp A→B at 3 μM [1] was 12.6 ×10⁻⁶ cm/s and the IC50 (Human C5 [2]) was 1.4 nM.

With `COc1cc(CC(=O)N[C@H]2CCNC2)ccc1CN1C(=O)N(c2ccc(OC)c(OCCCC3CC3)c2)CC[C@@H]1C` [SC0114] the Papp A→B at 3 μM [1] was 0.1 ×10⁻⁶ cm/s, the solubility kinetic [3] was 252 µM (≈ 142 µg/mL) and the IC50 (Human C5 [2]) was 1.3 nM.

With `COc1ccc(N2CC[C@H](C)N(Cc3cccc4c3c(Cl)cn4CC(=O)N(C)C)C2=O)cc1OCCCC1CCC1` [SC0125] the Kd [4] was 0.09 nM and the IC50 (Human C5 [2]) was 1.6 nM.

With `COc1cc(CC(=O)N2CCO[C@@H](CN(C)C)C2)ccc1CN1C(=O)N(c2ccc(OC)c(OCCCC3CC3)c2)CC[C@@H]1C` [SC0146] the Papp A→B at 3 μM [1] was 2.6 ×10⁻⁶ cm/s, the solubility kinetic [3] was 486 µM (≈ 303 µg/mL) and the IC50 (Human C5 [2]) was 2.1 nM.

In the case of `CCCCCOc1cc(N2CCCN(Cc3ccnc4c3c(Cl)cn4CC(=O)N3CC(O)C3)C2=O)ccc1OC` [CU0518], the Papp A→B at 3 μM [1] is reported as 1.1 ×10⁻⁶ cm/s, the solubility kinetic [3] is reported as 47 µM (≈ 26.8 µg/mL) and the Kd [5] is reported as 0.82 nM.

For `CCCCCOc1cc(N2CC[C@H](C)N(Cc3ccnc4c3c(Cl)cn4CC(=O)N[C@H]3CCN(C)C3)C2=O)ccc1OC` [SC0147], the Papp A→B at 3 μM [1] was 0.7 ×10⁻⁶ cm/s and the IC50 (Human C5 [2]) was 2.2 nM.

For `CCCCCOc1cc(N2CC(C)CN(Cc3ccc(CNC(=O)c4cnco4)cc3OC)C2=O)ccc1OC` (stereo not shown) [SC0159], the Kd [4] was 0.4 nM and the IC50 (Human C5 [2]) was 2.7 nM.

In the case of `CCCCCOc1cc(N2CC(CO)CN(Cc3ccc(CC(=O)N4CCCOCC4)cc3OC)C2=O)ccc1OC` (stereo not shown) [SC0190], the Kd [4] is reported as 2.8 nM and the IC50 (Human C5 [2]) is reported as 7.1 nM.

Work on `CCCCCOc1cc(N2CCCN(Cc3ccnc4c3c(Cl)cn4CC(=O)N3CC[C@H](N(C)C)C3)C2=O)ccc1OC` [CU0521] yielded a Papp A→B at 3 μM [1] of 3.9 ×10⁻⁶ cm/s and a solubility kinetic [3] of 413 µM (≈ 252 µg/mL).

Compound `CCCCCOc1cc(N2CC[C@H](C)N(Cc3ccnc4c3c(Cl)cn4CC(=O)N(C)C)C2=O)ccc1OC` [SC0108] has a Papp A→B at 3 μM [1] of 21.7 ×10⁻⁶ cm/s and a solubility kinetic [3] of 141 µM (≈ 78.4 µg/mL).

`CCCCCOc1cc(N2CC[C@H](C)N(Cc3ccnc4c3c(Cl)cn4CC(=O)N3CC(N(C)C)C3)C2=O)ccc1OC` [SC0155] showed a Papp A→B at 3 μM [1] of 9.9 ×10⁻⁶ cm/s and an IC50 (Human C5 [2]) of 2.6 nM.

With `CCCCCOc1cc(N2CC(C)CN(Cc3ccc(CNC(=O)c4cocn4)cc3OC)C2=O)ccc1OC` (stereo not shown) [SC0170] the Kd [4] was 0.77 nM and the IC50 (Human C5 [2]) was 3.7 nM.

With `CCCCCOc1cc(N2CCCN(Cc3ccnc4c3c(Cl)cn4C3CCOCC3)C2=O)ccc1OC` [CU0513] the Papp A→B at 3 μM [1] was 9.6 ×10⁻⁶ cm/s and the solubility kinetic [3] was under 10 µM.

`COc1cc(CC(=O)N2CC[C@H](N(C)C)C2)ccc1CN1C(=O)N(c2ccc(OC)c(OCCCC3CC3)c2)CC[C@@H]1C` [SC0101] showed a Papp A→B at 3 μM [1] of 4.7 ×10⁻⁶ cm/s and an IC50 (Human C5 [2]) of 0.9 nM.

Work on `COc1ccc(N2CC[C@H](C)N(Cc3cccc4c3ccn4CC(=O)N3CCOCC3)C2=O)cc1OCCCC1CC1` [SC0164] yielded a Papp A→B at 3 μM [1] of 14.3 ×10⁻⁶ cm/s, a solubility kinetic [3] of 426 µM (≈ 245 µg/mL) and an IC50 (Human C5 [2]) of 2.9 nM.

Compound `CCCCCOc1cc(N2CC(C)CN(Cc3ccc(CC(=O)N4CCCOCC4)cc3OC)C2=O)ccc1OC` (stereo not shown) [SC0186] has a Kd [4] of 1.85 nM and an IC50 (Human C5 [2]) of 5.8 nM.

For `COc1cc(CC(=O)N2CCOCC2)ccc1CN1CCCN(c2ccc(OC)c(OCCCC3CC3)c2)C1=O` [CU0511], the Papp A→B at 3 μM [1] was 16.6 ×10⁻⁶ cm/s, the solubility kinetic [3] was 310 µM (≈ 171 µg/mL) and the Kd [5] was 0.47 nM.

Compound `COc1cc(CC(=O)N[C@H]2CN(C)C[C@H]2F)ccc1CN1C(=O)N(c2ccc(OC)c(OCCCC3CC3)c2)CC[C@@H]1C` [SC0123] has a Papp A→B at 3 μM [1] of 4.8 ×10⁻⁶ cm/s and an IC50 (Human C5 [2]) of 1.5 nM.

Compound `CCN1CC[C@H](N(C)C(=O)Cc2ccc(CN3C(=O)N(c4ccc(OC)c(OCCCC5CC5)c4)CC[C@@H]3C)c(OC)c2)C1` [SC0149] has a Papp A→B at 3 μM [1] of 3.5 ×10⁻⁶ cm/s and an IC50 (Human C5 [2]) of 2.2 nM.

`CCCCCOc1cc(N2CCCN(Cc3ccnc4c3c(Cl)cn4CC(=O)N3CCOCC3)C2=O)ccc1OC` [CU0526] gave a Papp A→B at 3 μM [1] of 16.8 ×10⁻⁶ cm/s, a solubility kinetic [3] of under 10 µM and a Kd [5] of 0.052 nM.

In the case of `CCCCCOc1cc(N2CCCN(Cc3ccc(CC(=O)N4CCOC(CN(C)C)C4)cc3OC)C2=O)ccc1OC` (racemic) [CU0136], the Papp A→B at 3 μM [1] is reported as 2.4 ×10⁻⁶ cm/s, the IC50 (Human C5 [6]) is reported as 12.5 nM and the solubility kinetic [3] is reported as 479 µM (≈ 286 µg/mL).
